# Reference: PubChem BioAssay (NCI)
# “And” between values parts separate entries of the source, which are not always exact repeats. Equal values may be shown once.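 Method: 48-hour compound exposure of cells in 96-well plates, five concentrations, linear interpolation of endpoints. GI50: concentration for 50% inhibition of growth. At the TGI there is no net growth.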
# Test system: MDA-MB-468 breast
# Assay: DTP human tumour cell line panel, 48 h
Compound,GI50,TGI
O=C(NO)c1ccc(Cn2c(=O)n(-c3ccccc3)c(=O)c3ccccc32)cc1,542 nM,2230 nM
CC[C@H](C)[C@H](NC(=O)NC(C)(C)C)C(=O)N(C)[C@H](C[C@@H](OC(C)=O)c1nc(C(=O)N[C@@H](Cc2ccccc2)C[C@H](C)C(=O)OC)cs1)C(C)C,79.7 nM,441 nM
O=C(O)c1cn(C2CC2)c2cc(N3CCNCC3)c(F)cc2c1=O,> 100000 nM,> 100000 nM
CCN(CC)CCOc1ccc(C(=C(c2ccccc2)C2CCCC2)c2ccc(OCCN(CC)CC)cc2)cc1,2300 nM,5510 nM
O=c1[nH]c(Sc2sc3ccc(Cl)cc3c2CBr)nc(=S)[nH]1,> 68800 nM,> 100000 nM
CCCCCCCCCCCC1=NC(C)(C)CN1CC(C)O (stereo not given),2110 nM,10900 nM
CCOC(=O)c1ccc(N(C=O)CCC(=O)CCl)cc1,382 nM,2130 nM
OCCn1cc(-c2cnc3nnn(Cc4ccc5ncccc5c4)c3n2)cn1,98800 nM,> 100000 nM
C#C[C@]1(O)CC[C@H]2[C@@H]3CC=C4c5sc(NCc6ccccc6)nc5CC[C@]4(C)[C@H]3CC[C@@]21C,4400 nM,18300 nM
COc1ccc(/C=N\NC(=O)c2ccc3nc(-c4ccc(Cl)cc4)[nH]c3c2)cc1,1940 nM,4550 nM
COc1cc(-c2nc3cc(Cl)c(Cl)cc3[nH]2)ccc1OCC(=O)N=Nc1c(O)[nH]c2ccc(Cl)cc12,256 nM,697 nM
Nc1nccc2c1ccn2-c1cccc(NC(=O)c2ccc(N3CCOCC3)c(C(F)(F)F)c2)c1,331 nM,3190 nM
O=C1CC(c2ccsc2)c2snc(-c3ccc(Cl)cc3)c2N1 (stereo not given),291 nM,1720 nM
Clc1ccc2nc(Cl)c3ccccc3c2c1,10500 nM,38700 nM
COc1ccc(-c2nnc(SCC(=O)Nc3ccc(C(=O)/C=C/c4cc(OC)c(OC)c(OC)c4)cc3)n2-c2ccccc2)cc1OC,4610 nM,> 10000 nM
O=C(c1nn(-c2ccc(Cl)cc2)cc1O)n1nc(C(F)(F)F)cc1-c1ccccc1,4500 nM,> 100000 nM
CCOC(=O)Cn1c(-c2nonc2NC(=O)c2ccccc2F)nc2ccccc21,21800 nM,> 100000 nM
O=C1NC(=O)[C@@H](c2c[nH]c3ccccc23)[C@@H]1c1c[nH]c2ccccc12,> 25000 nM,> 25000 nM
COc1ccc(C(=O)/C=C/c2cc(-c3ccc4c(c3)OCO4)n[nH]2)cc1OC,1860 nM,4520 nM
O=C(CCN1CCCC1)Nc1ccc2c(NCCc3ccccc3)c3ccccc3nc2c1,284 nM,1040 nM
CNC(=O)c1cc(Oc2ccc3nc(N[C@@H]4CCCC[C@H]4O)sc3c2)ccn1,23700 nM,> 89700 nM
CN1CCN(c2ccc3nc(-c4[nH]ncc4Nc4ncnc5c4OCCCN5)[nH]c3c2)CC1,< 10 nM,21.1 nM
CCSc1ccc([C@@H]2[C@@H](N)C(=O)N2c2cc(OC)c(OC)c(OC)c2)cc1,77.5 nM,> 100000 nM
CCCCCCCCNC(C)C(O)c1ccc(SC(C)C)cc1 (stereo not given),1570 nM,3240 nM
C=C(C)[C@@H]1CC[C@]2(C(=O)O)CC[C@]3(C)[C@H](CC[C@@H]4[C@@]5(C)C/C(=C/c6cccc(I)c6)C(=O)C(C)(C)[C@@H]5CC[C@]43C)[C@@H]12,2450 nM,11100 nM
O=c1c2c(=NCCN3CCCC3)cc3c(=O)n(CCCN4CCOCC4)c(=O)c4ccc(c(O)n1CCCN1CCOCC1)c2c4-3,109 nM,335 nM
COc1ccc(C2=N[C@@H](c3ccc(Cl)cc3)[C@@H](c3ccc(Cl)cc3)N2C(=O)N2CCNC(=O)C2)c(OC(C)C)c1,12200 nM and 11500 nM and 12700 nM,25200 nM and 24500 nM and 26600 nM
CN(C)c1ccc(Nc2c3ccccc3nc3cc(NC(=O)CCN4CCCC4)ccc23)cc1,290 nM,1130 nM
NC(=O)c1sc(-n2cnc3ccc(C(F)(F)F)cc32)cc1OCc1ccccc1Br,349 nM,977 nM
c1ccc2cc(C[n+]3ccn(Cc4ccc5ccccc5n4)c3)ccc2c1,80.7 nM and 611 nM,496 nM and 4140 nM
